The first assay concerns VSV-g pseudotyped HIV vector that expresses luciferase (PHIV). Briefly: microbe, parasite or virus in culture. In kind it is cell-based. Conditions: Human immunodeficiency virus 1, HEK-293T, 48 h, read-out: PHIV IC50.
Turning to `O=C(NCc1ccc(F)cc1F)c1cn2c(c(O)c1=O)C(=O)N1[C@H](C2)N[C@H]2CCCC[C@@H]21` [Example Z-39, (6aR,7aS,11aS)—N-[(2,4-Difluorophenyl)methyl]-1-hydroxy-2,13-dioxo-2,6a,7,7a,8,9,10,11,11a,13-decahydro-6H-pyrido[1′,2′:4,5]pyrazino[1,2-a]benzimidazole-3-carboxamide], the IC50 is < 10 nM.

As for `CC(C)CN1CC[C@@H](C)N2C(=O)c3c(O)c(=O)c(C(=O)NCc4ccc(F)cc4)cn3C[C@H]12` [Example Z-29, (4R,12aR)—N-[(4-fluorophenyl)methyl]-7-hydroxy-4-methyl-1-(2-methylpropyl)-6,8-dioxo-6-[(phenylmethyl)oxy]-1,2,3,4,6,8,12,12a-octahydropyrido[1′,2′:4,5]pyrazino[1,2-a]pyrimidine-9-carboxamide], the IC50 is < 10 nM.

Regarding `O=C(NCc1ccc(F)cc1F)c1cn2c(c(O)c1=O)C(=O)N1CC[C@H]3CCCCN3[C@H]1C2` [Example Z-42, (4aR,14aR)—N-[(2,4-Difluorophenyl)methyl]-9-hydroxy-8,10-dioxo-2,3,4,4a,5,6,8,10,14,14a-decahydro-1H-pyrido[1,2-c]pyrido[1′,2′:4,5]pyrazino[1,2-a]pyrimidine-11-carboxamide], the IC50 is < 10 nM.

Consider `CC(C)C[C@@H]1CO[C@H]2Cn3cc(C(=O)NCc4ccc(F)cc4F)c(=O)c(O)c3C(=O)N12` [Example Z-17, (3R,11aS)—N-[(2,4-Difluorophenyl)methyl]-6-hydroxy-3-(2-methylpropyl)-5,7-dioxo-2,3,5,7,11,11a-hexahydro[1,3]oxazolo[3,2-a]pyrido[1,2-d]pyrazine-8-carboxamide], for which the IC50 was < 10 nM.

As for `O=C(NCc1ccc(F)cc1F)c1cn2c(c(O)c1=O)C(=O)N1[C@@H](C2)OC[C@@H]2C[C@@H](c3ccccc3)CC[C@@H]21` (racemic) [Example Z-37, racemic-(3S,4aR,6aR,14aS)—N-[(2,4-Difluorophenyl)methyl]-12-hydroxy-11,13-dioxo-3-phenyl-1,3,4,4a,5,6a,7,11,13,14a-decahydro-2H-pyrido[1′,2′:4,5]pyrazino[1,2-a][3,1]benzoxazine-10-carboxamide], the IC50 was < 10 nM.

In the case of `C[C@H]1CO[C@@H]2Cn3cc(C(=O)NCc4ccc(F)cc4)c(=O)c(O)c3C(=O)N12` [Example Z-10, (3S,11aR)—N-[(4-fluorophenyl)methyl]-6-hydroxy-3-methyl-5,7-dioxo-2,3,5,7,11,11a-hexahydro[1,3]oxazolo[3,2-a]pyrido[1,2-d]pyrazine-8-carboxamide], the IC50 was < 10 nM.

`O=C(NCc1ccc(F)cc1)c1cn2c(c(O)c1=O)C(=O)N1[C@@H](C2)OC[C@@H]2CCCC[C@@H]21` (racemic) [Example Z-36, racemic-(4R,6aR,14aS)—N-[(4-Fluorophenyl)methyl]-12-hydroxy-11,13-d oxo-1,3,4,4a,5,6a,7,11,13,14a-decahydro-2H-pyrido[1′,2′:4,5]pyrazino[1,2-a][3,1]benzoxazine-10-carboxamide]: the IC50 is < 10 nM.

Regarding `CC[C@@H]1CO[C@H]2Cn3cc(C(=O)NCc4ccc(F)cc4F)c(=O)c(O)c3C(=O)N12` [Example Z-50, (3R,11aS)—N-[(2,4-Difluorophenyl)methyl]-3-ethyl-6-hydroxy-5,7-dioxo-2,3,5,7,11,11a-hexahydro[1,3]oxazolo[3,2-a]pyrido[1,2-d]pyrazine-8-carboxamide], the IC50 was < 10 nM.

As for `O=C(NCc1ccc(F)cc1F)c1cn2c(c(O)c1=O)C(=O)N1[C@H](C2)O[C@@H](c2ccccc2)[C@H]1c1ccccc1` [Example Z-23, (2S,3R,11aS)—N-[(2,4-Difluorophenyl)methyl]-6-hydroxy-5,7-dioxo-2,3-diphenyl-2,3,5,7,11,11a-hexahydro[1,3]oxazolo[3,2-a]pyrido[1,2-d]pyrazine-8-carboxamide], the IC50 is < 10 nM.

In the case of `O=C(NCc1ccc(F)cc1F)c1cn2c(c(O)c1=O)C(=O)N1[C@@H](c3ccccc3)CO[C@@H]1C2` [Example Z-13, (3S,11aR)—N-[(2,4-Difluorophenyl)methyl]-6-hydroxy-5,7-dioxo-3-phenyl-2,3,5,7,11,11a-hexahydro[1,3]oxazolo[3,2-a]pyrido[1,2-d]pyrazine-8-carboxamide], the IC50 is 10 to 100 nM.

For `CC(=O)NCCN1C[C@@H]2CCCC[C@@H]2N2C(=O)c3c(O)c(=O)c(C(=O)NCc4ccc(F)cc4F)cn3C[C@@H]12` (racemic) [Example Z-55], the IC50 was in the range of 10 to 100 nM.

As for `C[C@H]1CCN(CC2CC2)[C@@H]2Cn3cc(C(=O)NCc4ccc(F)cc4F)c(=O)c(O)c3C(=O)N12` [Example Z-32, (4S,12aS)-1-(Cyclopropylmethyl)-N-[(2,4-difluorophenyl)methyl]-7-hydroxy-4-methyl-7-hydroxy-4-methyl-6,8-dioxo-1,2,3,4,6,8,12,12a-octahydropyrido[1′,2′:4,5]pyrazino[1,2-a]pyrimidine-9-carboxamide], the IC50 was < 10 nM.

In the case of `O=C(NCc1ccc(F)cc1F)c1cn2c(c(O)c1=O)C(=O)N1[C@H]3CCCC[C@H]3CN(CCN3CCOCC3)[C@@H]1C2` (racemic) [Example Z-51, racemic-(4aS,6aS,14aS)—N-[(2,4-Difluorophenyl)methyl]-12-hydroxy-6-[2-(4-morpholinyl)ethyl]-11,13-dioxo-1,2,3,4,4a,5,6,6a,7,11,13,14a-dodecahydropyrido-[1′,2′:4,5]pyrazino[1,2-a]quinazoline-10-carboxamide], the IC50 was < 10 nM.

As to `C[C@@H]1[C@H](c2ccccc2)OC2Cn3cc(C(=O)NCc4ccc(F)cc4F)c(=O)c(O)c3C(=O)N21` (stereo partly drawn) [Example Z-15, (2S,3R)—N-[(2,4-Difluorophenyl)methyl]-6-hydroxy-3-methyl-5,7-dioxo-2-phenyl-2,3,5,7,11,11a-hexahydro[1,3]oxazolo[3,2-a]pyrido[1,2-d]pyrazine-8-carboxamide], the IC50 was < 10 nM.

With `O=C(NCc1ccc(F)cc1)c1cn2c(c(O)c1=O)C(=O)N1C[C@H]3CCCN3[C@@H]1C2` [Example Z-5, (4aS,13aR)—N-[(4-Fluorophenyl)methyl]-10-hydroxy-9,11-dioxo-2,3,4a,5,9,11,13,13a-octahydro-1H-pyrido[1,2-a]pyrrolo[1′,2′:3,4]imidazo[1,2-d]pyrazine-8-carboxamide], the IC50 was < 10 nM.

For a further assay, the target named is HIV integrase (Human immunodeficiency virus type 1 group M subtype B (isolate HXB2) (HIV-1), UniProt P04585). Briefly: HIV integrase inhibitory activity assay (immunoplate strand transfer, OD405). It is filed as biochemical.
Conditions: not given
On the procedure:
The HIV integrase inhibitory activity was investigated based on the following assay method.
(1) Preparation of DNA Solution
By the same method as that described in Experimental Example 1 of WO 2004/024693, a substrate DNA solution (2 pmol/μl) and a target DNA solution (5 pmol/μl) were prepared. […] Each sequence of a substrate DNA and a target DNA is as described in the same Experimental Example.
(2) Measurement of Inhibition Rate (IC50 Value)
Streptavidin (manufactured by Vector Laboratories) was dissolved in a 0.1M carbonate buffer solution (composition: […] Na2CO3, 10 mM NaHCO3) to a concentration of 40 μg/ml, Each 50 μl of this solution was added to a well of an immunoplate (manufactured by NUNC), this is allowed to stand at 4° C. overnight to adsorb. Then, each well was washed with a phosphate buffer (composition: 13.7 mM NaCl, 0.27 mM KCl, 0.43 mM Na2HPO4, 0.14 mM KH2PO4) two times, and 300 μl of a phosphate buffer containing 1% skim milk to block it for 30 minutes. Further, each well was washed with a phosphate buffer two times, 50 μl of a substrate DNA solution (2 pmol/μl) was added to adsorb at room temperature for 30 minutes while shaking, and this was washed with a phosphate buffer two times and, then, distilled water once.
Then, to each well prepared as described above were added 12 μl of a buffer (composition: 150 mM MOPS (pH7.2), 75 mM MnCl2, 50 mM 2-mercaptoethanol, 25% glycerol, 500 μg/ml bovine serum albumin-fraction V), and 51 μl of a reaction solution prepared from 39 μl of distilled water. Then, 9 μl of an integrase solution (30 pmol) was added, and the mixture was mixed well. To a well as a negative control (NC) was added 9 μl of a diluting solution (composition: 20 mM MOPS (pH7.2), 400 mM potassium glutamate, 1 mM EDTA, 0.1% NP-40, 20% glycerol, 1 mM DTT, 4 M urea), and this was mixed well using a plate mixer. […]
C abs.: absorbance of well of compound
NC abs.: absorbance of NC
PC abs.: absorbance of PC
As for `O=C(NCc1ccc(F)cc1)c1cn2c(c(O)c1=O)C(=O)N1CCOC1C2` (centres unmarked) [Example C-2, 5-Hydroxy-4,6-dioxo-2,3,4,6,9,9a-hexahydro-1-oxa-8a,8a-diaza-cyclopenta[b]naphthalene-7 carboxylic acid 4-fluorobenzylamide], the “Integrase inhibitory activity (IC50, ng/ml)” value turned out to be 3.3 ng/mL.

Still in this assay, the particulars now being: read-out: Integrase inhibitory activity (IC50, ng/ml) (converted).
In the case of `CC(C)CN1CCCN2C(=O)c3c(O)c(=O)c(C(=O)NCc4ccc(F)cc4)cn3CC12` (centres unmarked) [Example F-2, 5-Hydroxy-1-isobutyl-6,10-dioxo-1,2,3,4,6,9,9a,10-octahydro-1,4a,8a-triazaanthracene-7-carboxylic acid 4-fluorobenzylamide], the IC50 was 8.59 nM.
